Laboratory results: patent US11472805B2, “Tricyclic compounds and their use as phosphodiesterase inhibitors” (Pfizer Inc., priority 2015, dated 2022)
Like-named read-outs stand apart in the source and are kept apart here.

Columns and labels:
Assay type in all cases: biochemical
human PDE4D3 = human PDE4D3 (Homo sapiens (Human), UniProt Q08499); assay: PDE4D3 Scintillation Proximity Assay (SPA), inhibition of enzyme activity; details: read-out: Human PDE4D FL
Description: (§1) The PDE4A, PDE4B, PDE4C and PDE4D binding affinity for the compounds of the present invention was determined utilizing the following biological assay(s):
A portion of the human PDE4D3 coding sequence (amino acids 50 to 672 from the sequence with accession number Q08499-2) was cloned into the baculovirus expression vector pFastBac (Invitrogen) engineered to include a C-terminal His6 affinity tag to aid in purification as described in Seeger, T. F. et al., Brain Research 985 (2003) 113-126. The recombinant Bacmid was isolated and used to transfect insect cells to generate a viral stock. To generate cell paste for purification, insect cells were infected and cells were harvested 72 hours after infection. Insect cell paste was lysed and after centrifugation, the supernatant was chromatographed on Ni-NTA agarose (Qiagen) as described in Seeger, T. F. et al., Brain Research 985 (2003) 113-126. Ni-NTA agarose eluting fractions containing PDE4 were pooled, diluted with Q Buffer A (50 mM Tris HCl pH 8, 4% glycerol, 100 mM NaCl, 1 mM TCEP, Protease inhibitors EDTA-free (Roche)) to reduce NaCl to ˜200 mM, and loaded on a Q Sepharose (GE Healthcare) column. After washing with Q buffer A to baseline, PDE4D was eluted with a gradient from 10% to 60% of Buffer B (50 mM Tris HCl pH 8, 1 M NaCl, 4% glycerol, 1 mM TCEP). PDE4D fractions were analyzed by SDS-PAGE Coomassie blue staining, pooled based on purity, frozen and stored at −80° C.
(§2) The PDE4A3, PDE4B1, PDE4C1 and PDE4D3 assays use the Scintillation Proximity Assay (SPA) technology to measure the inhibition of human recombinant PDE4A1, PDE4B3, PDE4C1, and PDE4D3 enzyme activity by compounds in vitro. The PDE4A1, PDE4B3, PDE4C1, and PDE4D3 assays are run in parallel using identical parameters, except for the concentration of enzyme ([…]). The assays are performed in a 384-well format with 50 uL assay buffer (50 mM TRIS pH7.5; 1.3 mM MgCl2; 0.01% Brij) containing enough PDE4A3, PDE4B1, PDE4C1, and PDE4D to convert ˜20% of substrate (1 μM cAMP consisting of 20 nM 3H-cAMP+[…] cold cAMP) and a range of inhibitors. Reactions are incubated for 30 min at 25° C. The addition of 20 uL of 8 mg/ml yitrium silicate SPA beads (Perkin Elmer) stops the reaction. The plates are sealed (TopSeal, Perkin Elmer) and the beads are allowed to settle for 8 hrs, after which they are read on the Trilux Microbeta overnight.

Human PDE4B1 = Human PDE4B1 (Homo sapiens (Human), UniProt Q07343, S133E/S654A/S659A/S661A); assay: PDE4B1 Scintillation Proximity Assay (SPA), inhibition of enzyme activity; details: read-out: Human PDE4B FL
Description: as §1
The recombinant Bacmid was isolated and used to transfect insect cells to generate a viral stock. To generate cell paste for purification, insect cells were infected with the virus stock and cells were harvested 72 hours after infection as described in Seeger, T. F. et al., Brain Research 985 (2003) 113-126. Insect cell paste was lysed and after centrifugation, the supernatant was chromatographed on Ni-NTA agarose (Qiagen) as described in Seeger, T. F. et al., Brain Research 985 (2003) 113-126. Ni-NTA agarose eluting fractions containing PDE4 were pooled, diluted with Q buffer A (20 mM Tris HCl pH 8, 5% glycerol, 1 mM TCEP) to reduce NaCl to ˜100 mM and loaded on a Source 15Q (GE Healthcare) column. After washing with Q buffer A/10% buffer B to baseline, PDE4D was eluted with a gradient from 10% to 60% of Buffer B (20 mM Tris HCl pH 8, 1 M NaCl, 5% glycerol, 1 mM TCEP). PDE4D fractions were analyzed by SDS-PAGE Coomassie blue staining, pooled based on purity, frozen and stored at −80° C.
as §2

Human PDE4A3 = Human PDE4A3 (Homo sapiens (Human), UniProt P27815); assay: PDE4A3 Scintillation Proximity Assay (SPA), inhibition of enzyme activity; details: read-out: Human PDE4A FL
Description: as §1
(§3) The recombinant Bacmid was isolated and used to transfect insect cells to generate a viral stock. To generate cell paste for purification, insect cells were infected with the virus stock and cells were harvested 72 hours after infection. Insect cell paste was lysed and after centrifugation, the supernatant was batch bound to Ni-NTA agarose (GE Healthcare) and eluted with 250 mM imidazole. This eluate was diluted with FLAG buffer (50 mM Tris HCL pH 7.5, 100 mM NaCl, 5% Glycerol, 1 mM TCEP with protease inhibitors) and batch bound to ant-FLAG M2 agarose (Sigma) overnight at 4° C. The agarose was packed into a column, washed with buffer and eluted with buffer containing elute using 250 ug/ml Flag-peptide. Fractions were analyzed using SDS-PAGE Coomassie blue staining and pooled based on purity. Pooled fractions were chromatographed on a S200 120 ml column (GE Healthcare) in 50 mM Tris HCL pH 7.5, 150 mM NaCl, 10% Glycerol, 2 mM TCEP with protease inhibitors. PDE4A3 fractions were analyzed by SDS-PAGE Coomassie blue staining, pooled based on purity, dialyzed against 50 mM Tris HCL pH 7.5, 100 mM NaCl, 20% Glycerol, 2 mM TCEP, frozen and stored at −80° C.
as §2

Human PDE4C1 = Human PDE4C1 (Homo sapiens (Human), UniProt Q08493); assay: PDE4C1 Scintillation Proximity Assay (SPA), inhibition of enzyme activity; details: read-out: Human PDE4C FL
Description: as §1
as §3, with “PDE4C1” for “PDE4A3”
as §2

[1] = Table 9, geometric mean of 2-9 determinations unless otherwise indicated
[2] = Table 10, geometric mean of 2-9 determinations unless otherwise indicated

Chain of Human PDE4A3 (P27815 other isoform, or with tags, fused parts or gaps): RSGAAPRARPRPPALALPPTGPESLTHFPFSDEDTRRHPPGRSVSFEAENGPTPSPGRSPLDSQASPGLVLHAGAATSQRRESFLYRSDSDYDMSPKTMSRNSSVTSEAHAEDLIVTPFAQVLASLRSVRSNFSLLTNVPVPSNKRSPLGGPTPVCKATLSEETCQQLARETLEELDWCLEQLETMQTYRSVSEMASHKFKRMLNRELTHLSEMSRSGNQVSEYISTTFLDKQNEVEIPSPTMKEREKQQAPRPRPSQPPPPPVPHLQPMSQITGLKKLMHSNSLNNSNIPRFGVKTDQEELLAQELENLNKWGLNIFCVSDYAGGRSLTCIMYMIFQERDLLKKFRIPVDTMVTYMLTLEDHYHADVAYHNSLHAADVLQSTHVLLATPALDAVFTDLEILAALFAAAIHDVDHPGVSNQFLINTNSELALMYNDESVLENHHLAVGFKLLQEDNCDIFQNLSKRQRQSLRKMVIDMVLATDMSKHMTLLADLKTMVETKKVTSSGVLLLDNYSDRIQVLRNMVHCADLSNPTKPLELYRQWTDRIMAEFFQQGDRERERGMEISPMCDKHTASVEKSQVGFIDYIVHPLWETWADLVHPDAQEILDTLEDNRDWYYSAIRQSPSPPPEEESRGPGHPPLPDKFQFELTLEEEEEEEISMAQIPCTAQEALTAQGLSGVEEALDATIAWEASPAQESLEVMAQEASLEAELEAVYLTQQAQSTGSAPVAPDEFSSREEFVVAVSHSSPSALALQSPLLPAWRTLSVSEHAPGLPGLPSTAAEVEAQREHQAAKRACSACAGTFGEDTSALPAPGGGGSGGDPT
Chain of Human PDE4B1 (Q07343 122-736 S133E/S654A/S659A/S661A): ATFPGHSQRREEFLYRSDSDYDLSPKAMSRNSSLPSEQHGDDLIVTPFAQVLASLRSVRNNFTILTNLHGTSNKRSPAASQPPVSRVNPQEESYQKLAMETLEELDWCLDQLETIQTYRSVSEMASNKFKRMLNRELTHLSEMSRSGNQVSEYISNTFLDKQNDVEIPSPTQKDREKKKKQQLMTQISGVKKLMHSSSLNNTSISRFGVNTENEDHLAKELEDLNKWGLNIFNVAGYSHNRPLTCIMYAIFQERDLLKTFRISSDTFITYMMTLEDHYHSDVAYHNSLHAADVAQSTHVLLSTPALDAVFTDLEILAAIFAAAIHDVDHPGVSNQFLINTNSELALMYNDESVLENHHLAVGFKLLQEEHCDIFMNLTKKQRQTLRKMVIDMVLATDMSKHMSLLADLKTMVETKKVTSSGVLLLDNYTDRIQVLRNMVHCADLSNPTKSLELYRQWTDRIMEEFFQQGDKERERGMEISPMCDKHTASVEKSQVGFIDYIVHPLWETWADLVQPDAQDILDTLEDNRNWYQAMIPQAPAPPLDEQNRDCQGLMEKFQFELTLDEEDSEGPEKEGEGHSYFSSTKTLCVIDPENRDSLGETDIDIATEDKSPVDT
Chain of Human PDE4C1 (Q08493 2-712): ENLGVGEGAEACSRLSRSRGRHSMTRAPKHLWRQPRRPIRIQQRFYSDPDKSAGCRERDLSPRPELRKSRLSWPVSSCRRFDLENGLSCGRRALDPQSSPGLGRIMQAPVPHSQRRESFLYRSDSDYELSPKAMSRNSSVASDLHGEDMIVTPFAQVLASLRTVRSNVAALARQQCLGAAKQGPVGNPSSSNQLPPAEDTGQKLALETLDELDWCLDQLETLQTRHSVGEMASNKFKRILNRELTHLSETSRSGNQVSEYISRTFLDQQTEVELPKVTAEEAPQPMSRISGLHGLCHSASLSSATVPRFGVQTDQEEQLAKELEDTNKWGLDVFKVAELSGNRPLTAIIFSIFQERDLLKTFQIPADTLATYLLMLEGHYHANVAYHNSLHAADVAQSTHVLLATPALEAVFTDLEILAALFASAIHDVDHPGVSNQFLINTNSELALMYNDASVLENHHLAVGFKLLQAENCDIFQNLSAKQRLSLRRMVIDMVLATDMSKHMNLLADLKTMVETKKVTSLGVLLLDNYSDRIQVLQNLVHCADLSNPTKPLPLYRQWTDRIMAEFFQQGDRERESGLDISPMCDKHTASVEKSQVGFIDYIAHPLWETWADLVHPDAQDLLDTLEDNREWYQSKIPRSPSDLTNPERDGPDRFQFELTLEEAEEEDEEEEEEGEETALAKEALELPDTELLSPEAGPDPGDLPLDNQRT
Chain of human PDE4D3 (Q08499 186-808): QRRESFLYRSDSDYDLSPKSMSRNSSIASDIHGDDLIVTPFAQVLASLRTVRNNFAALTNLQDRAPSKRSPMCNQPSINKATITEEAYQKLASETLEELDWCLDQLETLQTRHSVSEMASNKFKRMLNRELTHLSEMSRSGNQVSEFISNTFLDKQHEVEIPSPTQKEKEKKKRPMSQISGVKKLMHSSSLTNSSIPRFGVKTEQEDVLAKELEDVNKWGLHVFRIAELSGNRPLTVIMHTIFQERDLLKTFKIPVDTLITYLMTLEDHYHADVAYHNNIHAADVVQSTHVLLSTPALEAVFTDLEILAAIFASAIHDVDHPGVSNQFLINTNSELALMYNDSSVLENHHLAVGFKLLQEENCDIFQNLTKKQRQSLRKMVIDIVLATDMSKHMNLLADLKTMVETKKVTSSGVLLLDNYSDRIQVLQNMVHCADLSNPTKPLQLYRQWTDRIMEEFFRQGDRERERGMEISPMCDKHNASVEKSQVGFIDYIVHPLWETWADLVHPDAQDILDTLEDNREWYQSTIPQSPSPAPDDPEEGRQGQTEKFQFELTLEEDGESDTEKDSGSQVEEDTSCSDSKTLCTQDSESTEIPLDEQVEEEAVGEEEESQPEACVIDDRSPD

| Compound | IC50 (human PDE4D3; [1]) [nM] | IC50 (Human PDE4B1; [1]) [nM] | IC50 (Human PDE4A3; [1]) [nM] | IC50 (Human PDE4C1; [1]) [nM] | IC50 (human PDE4D3; [2]) [nM] | IC50 (Human PDE4B1; [2]) [nM] | IC50 (Human PDE4A3; [2]) [nM] | IC50 (Human PDE4C1; [2]) [nM] |
| --- | --- | --- | --- | --- | --- | --- | --- | --- |
| O=C1c2c(-c3ccc(Cl)c(F)c3)c3ncccc3n2CCN1c1ncccn1 [Example 74, 10-(4-Chloro-3-fluorophenyl)-8-(pyrimidin-2-yl)-7,8-dihydropyrido[2′,3′:4,5]pyrrolo[1,2-a]pyrazin-9(6H)-one] | 660 | 27 | 19 | 52 |  |  |  |  |
| O=C1c2c(-c3cc(F)c(F)c(F)c3)c3ncccc3n2CCN1C1CC1 [Example 40, 8-Cyclopropyl-10-(3,4,5-trifluorophenyl)-7,8-dihydropyrido[2′,3′:4,5]pyrrolo[1,2-a]pyrazin-9(6H)-one] | 17.2 | < 0.67 | < 0.41 | 4.36 |  |  |  |  |
| CS(=O)(=O)N1CCn2c(c(-c3ccc(Cl)cc3)c3ncccc32)C1=O [Example 79, 10-(4-Chlorophenyl)-8-(methylsulfonyl)-7,8-dihydropyrido[2′,3′:4,5]pyrrolo[1,2-a]pyrazin-9(6H)-one] |  |  |  |  | 120 | 212 | 104 | 173 |
| O=C1c2c(-c3cccc(F)c3)c3ncccc3n2CCN1C1CC1 [Example 41, 8-Cyclopropyl-10-(3-fluorophenyl)-7,8-dihydropyrido[2′,3′:4,5]pyrrolo[1,2-a]pyrazin-9(6H)-one] | 130 | 2.38 | 1.26 | 9.22 |  |  |  |  |
| Cn1cc(-c2c3n(c4cccnc24)CCN(C2CC2)C3=O)cn1 [Example 91, 8-Cyclopropyl-10-(1-methyl-1H-pyrazol-4-yl)-7,8-dihydropyrido[2′,3′:4,5]pyrrolo[1,2-a]pyrazin-9(6H)-one] |  |  |  |  | 4450 | 2760 | 889 | 2360 |
| COc1c(F)cc(-c2c3n(c4nccnc24)CCN(C2CC2)C3=O)cc1F [Example 59, 8-Cyclopropyl-10-(3,5-difluoro-4-methoxyphenyl)-7,8-dihydropyrrolo[1,2-a:4,5-b′]dipyrazin-9(6H)-one] | 290 | 9.73 | 12.6 | 87.7 |  |  |  |  |
| Cc1nccc(-c2c3n(c4cccnc24)CCN(C2CC2)C3=O)n1 [Example 81, 8-Cyclopropyl-10-(2-methylpyrimidin-4-yl)-7,8-dihydropyrido [2′,3′:4,5] pyrrolo[1,2-a]pyrazin-9(6H)-one] |  |  |  |  | > 30000 | > 30000 | > 30000 | 29700 |
| O=C1c2c(-c3ccc4ncnn4c3)c3ncccc3n2CCN1C1CC1 [Example 58, 8-Cyclopropyl-10-([1,2,4]triazolo[1,5-a]pyridin-6-yl)-7,8-dihydropyrido[2′,3′:4,5]pyrrolo[1,2-a]pyrazin-9(6H)-one] | 624 | 24 | 12.6 | 62.6 |  |  |  |  |
| O=C1c2c(-c3ccc(Cl)c(F)c3)c3c(n2CCN1C1CC1)CCCO3 [Example 76, 10-(4-Chloro-3-fluorophenyl)-8-cyclopropyl-3,4,7,8-tetrahydro-2H-pyrano[2′,3′:4,5]pyrrolo[1,2-a]pyrazin-9(6H)-one] | 21.6 | < 0.55 | < 0.31 | 2 |  |  |  |  |
| O=C1c2c(-c3ccc(Cl)c(F)c3)c3nccnc3n2CCN1C1CC1 [Example 8, 10-(4-Chloro-3-fluorophenyl)-8-cyclopropyl-7,8-dihydropyrrolo[1,2-a:4,5-b′]dipyrazin-9(6H)-one] | 88.5 | < 1.27 | 1.19 | 13.9 |  |  |  |  |
| N#Cc1ccc(-c2c3n(c4scnc24)CCN(C2CC2)C3=O)cn1 [Example 71, 5-(7-Cyclopropyl-8-oxo-5,6,7,8-tetrahydro[1,3]thiazolo[4′,5′:4,5]pyrrolo[1,2-a]pyrazin-9-yl)pyridine-2-carbonitrile] | 1070 | 43.5 | 27.6 | 52.5 |  |  |  |  |
| N#Cc1cc(-c2c3n(c4cccnc24)CCN(C2CC2)C3=O)ccc1Cl [Example 34, 2-Chloro-5-(8-cyclopropyl-9-oxo-6,7,8,9-tetrahydropyrido[2′,3′:4,5]pyrrolo[1,2-a]pyrazin-10-yl)benzonitrile] | 23.3 | < 0.64 | 0.98 | 2.88 |  |  |  |  |
| O=C1c2c(-c3cccc(Cl)c3)c3ncccc3n2CCN1C1CC1 [Example 48, 10-(3-Chlorophenyl)-8-cyclopropyl-7,8-dihydropyrido[2′,3′:4,5]pyrrolo[1,2-a]pyrazin-9(6H)-one] | 19.8 | < 0.72 | 1 | 3.16 |  |  |  |  |
| Cc1cc(C#N)c(F)cc1-c1c2c(n3c1C(=O)N(C1CC1)CC3)CCCO2 [Example 16, 4-(8-Cyclopropyl-9-oxo-3,4,6,7,8,9-hexahydro-2H-pyrano[2′,3′:4,5]pyrrolo[1,2-a]pyrazin-10-yl)-2-fluoro-5-methylbenzonitrile] | 45.5 | 1.78 | 1.57 | 15.2 |  |  |  |  |
| O=C1c2c(-c3cnc4ccoc4c3)c3ncccc3n2CCN1C1CC1 [Example 64, 8-Cyclopropyl-10-(furo[3,2-b]pyridin-6-yl)-7,8-dihydropyrido[2′,3′:4,5]pyrrolo[1,2-a]pyrazin-9(6H)-one] | 458 | 11.5 | 3.56 | 37.5 |  |  |  |  |
